Laboratory results reported in ChEMBL document CHEMBL4507311, “Data for DCP probe A-1155463” (2021).

Key:
[1] = biological target: Serine/threonine-protein kinase pim-3 (Homo sapiens) (UniProt Q86V86); details: Compound concentration 1000.0 nM
[2] = biological target: T1, 5-hydroxytryptamine receptor 2C (Homo sapiens) (UniProt P28335); details: Compound concentration 10.0 uM
T1 sequence (whole entry): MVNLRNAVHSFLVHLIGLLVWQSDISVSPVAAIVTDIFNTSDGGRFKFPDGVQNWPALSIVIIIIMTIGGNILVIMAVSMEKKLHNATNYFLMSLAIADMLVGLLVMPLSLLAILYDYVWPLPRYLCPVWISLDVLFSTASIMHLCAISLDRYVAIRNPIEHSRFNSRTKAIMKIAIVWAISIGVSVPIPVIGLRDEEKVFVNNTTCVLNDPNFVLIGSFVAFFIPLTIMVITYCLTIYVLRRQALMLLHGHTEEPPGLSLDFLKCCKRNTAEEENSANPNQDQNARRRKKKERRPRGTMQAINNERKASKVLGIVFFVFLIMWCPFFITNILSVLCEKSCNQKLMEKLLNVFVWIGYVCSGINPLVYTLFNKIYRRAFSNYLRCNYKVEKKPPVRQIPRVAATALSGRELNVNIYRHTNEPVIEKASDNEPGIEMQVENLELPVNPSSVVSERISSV

[3] = biological target: Beta-3 adrenergic receptor (Homo sapiens) (UniProt P13945); details: Compound concentration 10.0 uM
[4] = biological target: Ribosomal protein S6 kinase alpha-5 (Homo sapiens) (UniProt O75582); details: Compound concentration 1000.0 nM
[5] = test system: Mast/stem cell growth factor receptor Kit (Homo sapiens), P10721 [A829P]; details: Compound concentration 1000.0 nM
[6] = biological target: Dual specificity mitogen-activated protein kinase kinase 5 (Homo sapiens) (UniProt Q13163); details: Compound concentration 1000.0 nM
[7] = biological target: Serine/threonine-protein kinase D1 (Homo sapiens) (UniProt Q15139); details: Compound concentration 1000.0 nM
[8] = biological target: Serine/threonine-protein kinase SIK3 (Homo sapiens) (UniProt Q9Y2K2); details: Compound concentration 1000.0 nM
[9] = biological target: Death-associated protein kinase 3 (Homo sapiens) (UniProt O43293); details: Compound concentration 1000.0 nM
[10] = biological target: Serine/threonine-protein kinase TNNI3K (Homo sapiens) (UniProt Q59H18); details: Compound concentration 1000.0 nM
[11] = biological target: Serine/threonine-protein kinase 32B (Homo sapiens) (UniProt Q9NY57); details: Compound concentration 1000.0 nM
[12] = test system: Epidermal growth factor receptor (Homo sapiens), P00533 [G719S]; details: Compound concentration 1000.0 nM
[13] = biological target: Tyrosine-protein kinase Yes (Homo sapiens) (UniProt P07947); details: Compound concentration 1000.0 nM
[14] = biological target: cGMP-dependent protein kinase 1 (Homo sapiens) (UniProt Q13976); details: Compound concentration 1000.0 nM
[15] = biological target: G protein-coupled receptor kinase 4 (Homo sapiens) (UniProt P32298); details: Compound concentration 1000.0 nM
[16] = biological target: Phosphorylase b kinase regulatory subunit alpha, liver isoform (Homo sapiens) (UniProt P46019); details: Compound concentration 1000.0 nM
[17] = biological target: Tyrosine-protein kinase Lck (Homo sapiens) (UniProt P06239); details: Compound concentration 1000.0 nM
[18] = test system: Epidermal growth factor receptor (Homo sapiens), P00533 [UNDEFINED MUTATION]; details: Compound concentration 1000.0 nM
[19] = biological target: Serine/threonine-protein kinase 17A (Homo sapiens) (UniProt Q9UEE5); details: Compound concentration 1000.0 nM
[20] = test system: Receptor-type tyrosine-protein kinase FLT3 (Homo sapiens), P36888 [N841I]; details: Compound concentration 1000.0 nM
[21] = biological target: Mitogen-activated protein kinase 4 (Homo sapiens) (UniProt P31152); details: Compound concentration 1000.0 nM
[22] = test system: Mast/stem cell growth factor receptor Kit (Homo sapiens), P10721 [D816H]; details: Compound concentration 1000.0 nM
[23] = biological target: Protein kinase C eta type (Homo sapiens) (UniProt P24723); details: Compound concentration 1000.0 nM
[24] = biological target: Mitogen-activated protein kinase kinase kinase 7 (Homo sapiens) (UniProt O43318); details: Compound concentration 1000.0 nM
[25] = biological target: Receptor-interacting serine/threonine-protein kinase 4 (Homo sapiens) (UniProt P57078); details: Compound concentration 1000.0 nM
[26] = biological target: Serine/threonine-protein kinase Nek11 (Homo sapiens) (UniProt Q8NG66); details: Compound concentration 1000.0 nM
[27] = biological target: 5-hydroxytryptamine receptor 6 (Homo sapiens) (UniProt P50406); details: Compound concentration 10.0 uM
[28] = biological target: Serine/threonine-protein kinase 10 (Homo sapiens) (UniProt O94804); details: Compound concentration 1000.0 nM
[29] = test system: Hepatocyte growth factor receptor (Homo sapiens), P08581 [M1250T]; details: Compound concentration 1000.0 nM
[30] = biological target: Protein kinase C delta type (Homo sapiens) (UniProt Q05655); details: Compound concentration 1000.0 nM
[31] = biological target: Tyrosine-protein kinase receptor TYRO3 (Homo sapiens) (UniProt Q06418); details: Compound concentration 1000.0 nM
[32] = biological target: Alpha-2C adrenergic receptor (Homo sapiens) (UniProt P18825); details: Compound concentration 10.0 uM
[33] = biological target: Epidermal growth factor receptor (Homo sapiens) (UniProt P00533); details: Compound concentration 1000.0 nM
[34] = biological target: Testis-specific serine/threonine-protein kinase 1 (Homo sapiens) (UniProt Q9BXA7); details: Compound concentration 1000.0 nM
[35] = biological target: Mitogen-activated protein kinase 7 (Homo sapiens) (UniProt Q13164); details: Compound concentration 1000.0 nM
[36] = biological target: Serine/threonine-protein kinase 3 (Homo sapiens) (UniProt Q13188); details: Compound concentration 1000.0 nM
[37] = test system: Tyrosine-protein kinase ABL1 (Homo sapiens), P00519 [F317I]; details: Compound concentration 1000.0 nM

Chain of Serine/threonine-protein kinase 3 (Homo sapiens) (Q13188 whole entry): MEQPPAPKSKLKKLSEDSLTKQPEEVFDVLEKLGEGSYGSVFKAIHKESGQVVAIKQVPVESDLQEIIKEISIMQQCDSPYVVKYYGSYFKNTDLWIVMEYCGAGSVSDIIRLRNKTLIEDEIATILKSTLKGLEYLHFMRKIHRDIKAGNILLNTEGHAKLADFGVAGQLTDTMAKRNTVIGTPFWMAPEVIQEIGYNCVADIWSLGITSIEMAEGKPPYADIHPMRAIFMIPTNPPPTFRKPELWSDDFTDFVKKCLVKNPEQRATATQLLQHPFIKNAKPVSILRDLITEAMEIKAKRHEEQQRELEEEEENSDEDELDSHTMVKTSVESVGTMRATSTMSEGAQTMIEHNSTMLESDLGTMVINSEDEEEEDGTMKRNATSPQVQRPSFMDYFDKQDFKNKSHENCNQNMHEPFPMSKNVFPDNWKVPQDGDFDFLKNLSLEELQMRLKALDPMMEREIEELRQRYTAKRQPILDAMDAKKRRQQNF
Chain of Receptor-interacting serine/threonine-protein kinase 4 (Homo sapiens) (P57078 whole entry): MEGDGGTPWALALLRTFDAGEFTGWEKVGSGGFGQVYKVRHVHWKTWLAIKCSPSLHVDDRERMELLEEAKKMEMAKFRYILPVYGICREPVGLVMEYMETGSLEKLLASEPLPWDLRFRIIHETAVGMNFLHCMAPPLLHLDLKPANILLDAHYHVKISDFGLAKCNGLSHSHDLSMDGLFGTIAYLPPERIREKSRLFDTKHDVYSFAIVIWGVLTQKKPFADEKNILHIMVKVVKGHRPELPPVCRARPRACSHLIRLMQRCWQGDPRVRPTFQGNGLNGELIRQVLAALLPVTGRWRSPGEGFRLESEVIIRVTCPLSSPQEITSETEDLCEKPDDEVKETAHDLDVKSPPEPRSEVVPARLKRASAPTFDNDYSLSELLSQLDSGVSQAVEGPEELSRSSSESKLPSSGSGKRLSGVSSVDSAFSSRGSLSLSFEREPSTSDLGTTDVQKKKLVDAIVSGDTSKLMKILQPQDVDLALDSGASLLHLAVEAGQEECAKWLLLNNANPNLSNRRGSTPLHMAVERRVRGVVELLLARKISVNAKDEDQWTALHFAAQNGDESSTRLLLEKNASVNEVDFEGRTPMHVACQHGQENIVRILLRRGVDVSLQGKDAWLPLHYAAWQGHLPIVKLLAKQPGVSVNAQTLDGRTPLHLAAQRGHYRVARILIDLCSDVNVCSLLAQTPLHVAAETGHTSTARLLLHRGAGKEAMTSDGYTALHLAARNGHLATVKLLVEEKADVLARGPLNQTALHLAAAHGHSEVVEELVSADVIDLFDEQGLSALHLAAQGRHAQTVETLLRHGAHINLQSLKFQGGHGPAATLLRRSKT
Chain of Serine/threonine-protein kinase TNNI3K (Homo sapiens) (Q59H18 whole entry): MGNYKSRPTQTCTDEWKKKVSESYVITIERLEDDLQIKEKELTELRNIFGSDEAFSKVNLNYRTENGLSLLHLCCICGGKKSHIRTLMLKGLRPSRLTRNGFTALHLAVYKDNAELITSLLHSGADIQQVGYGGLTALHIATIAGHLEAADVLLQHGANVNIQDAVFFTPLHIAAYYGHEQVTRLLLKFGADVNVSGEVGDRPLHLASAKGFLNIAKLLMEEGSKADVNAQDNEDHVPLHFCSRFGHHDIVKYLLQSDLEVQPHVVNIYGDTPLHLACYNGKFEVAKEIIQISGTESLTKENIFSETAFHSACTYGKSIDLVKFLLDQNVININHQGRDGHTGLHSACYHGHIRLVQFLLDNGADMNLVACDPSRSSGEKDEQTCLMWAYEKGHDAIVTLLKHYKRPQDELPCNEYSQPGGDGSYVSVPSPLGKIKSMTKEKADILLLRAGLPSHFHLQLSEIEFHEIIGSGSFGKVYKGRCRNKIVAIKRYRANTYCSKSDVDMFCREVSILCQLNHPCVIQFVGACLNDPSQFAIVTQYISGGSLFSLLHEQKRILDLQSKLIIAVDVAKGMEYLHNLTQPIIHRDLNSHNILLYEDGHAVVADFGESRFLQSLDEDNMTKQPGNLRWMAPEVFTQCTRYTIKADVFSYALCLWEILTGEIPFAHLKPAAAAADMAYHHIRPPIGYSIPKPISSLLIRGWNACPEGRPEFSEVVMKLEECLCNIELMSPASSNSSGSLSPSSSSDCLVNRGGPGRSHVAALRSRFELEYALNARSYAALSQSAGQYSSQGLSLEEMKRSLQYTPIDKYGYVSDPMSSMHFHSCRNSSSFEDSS
Chain of Serine/threonine-protein kinase D1 (Homo sapiens) (Q15139 whole entry): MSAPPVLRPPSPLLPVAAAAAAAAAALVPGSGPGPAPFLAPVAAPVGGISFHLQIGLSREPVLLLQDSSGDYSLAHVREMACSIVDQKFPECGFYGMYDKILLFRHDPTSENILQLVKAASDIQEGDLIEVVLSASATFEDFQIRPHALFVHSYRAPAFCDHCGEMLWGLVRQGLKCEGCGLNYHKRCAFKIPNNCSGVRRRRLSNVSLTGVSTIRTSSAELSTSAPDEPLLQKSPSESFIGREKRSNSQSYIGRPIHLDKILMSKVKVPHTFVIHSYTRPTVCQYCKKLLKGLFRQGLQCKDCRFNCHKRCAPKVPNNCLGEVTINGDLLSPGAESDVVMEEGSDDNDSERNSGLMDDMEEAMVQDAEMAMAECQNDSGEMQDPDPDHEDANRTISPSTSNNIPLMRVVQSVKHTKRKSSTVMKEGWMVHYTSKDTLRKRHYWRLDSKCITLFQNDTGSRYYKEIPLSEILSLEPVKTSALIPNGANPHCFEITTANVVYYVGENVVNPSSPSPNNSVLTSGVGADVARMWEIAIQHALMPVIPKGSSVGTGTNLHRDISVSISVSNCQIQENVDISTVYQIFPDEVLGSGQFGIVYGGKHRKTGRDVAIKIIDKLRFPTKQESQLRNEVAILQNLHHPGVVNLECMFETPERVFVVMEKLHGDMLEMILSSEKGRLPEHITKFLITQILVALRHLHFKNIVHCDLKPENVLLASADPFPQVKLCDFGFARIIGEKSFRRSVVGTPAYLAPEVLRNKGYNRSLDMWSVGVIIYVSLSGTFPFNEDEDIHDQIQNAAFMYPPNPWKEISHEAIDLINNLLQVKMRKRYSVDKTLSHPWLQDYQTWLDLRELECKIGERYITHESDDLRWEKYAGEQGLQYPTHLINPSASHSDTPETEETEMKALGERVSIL
Chain of Mast/stem cell growth factor receptor Kit (Homo sapiens), P10721 [D816H] (P10721 whole entry D816H): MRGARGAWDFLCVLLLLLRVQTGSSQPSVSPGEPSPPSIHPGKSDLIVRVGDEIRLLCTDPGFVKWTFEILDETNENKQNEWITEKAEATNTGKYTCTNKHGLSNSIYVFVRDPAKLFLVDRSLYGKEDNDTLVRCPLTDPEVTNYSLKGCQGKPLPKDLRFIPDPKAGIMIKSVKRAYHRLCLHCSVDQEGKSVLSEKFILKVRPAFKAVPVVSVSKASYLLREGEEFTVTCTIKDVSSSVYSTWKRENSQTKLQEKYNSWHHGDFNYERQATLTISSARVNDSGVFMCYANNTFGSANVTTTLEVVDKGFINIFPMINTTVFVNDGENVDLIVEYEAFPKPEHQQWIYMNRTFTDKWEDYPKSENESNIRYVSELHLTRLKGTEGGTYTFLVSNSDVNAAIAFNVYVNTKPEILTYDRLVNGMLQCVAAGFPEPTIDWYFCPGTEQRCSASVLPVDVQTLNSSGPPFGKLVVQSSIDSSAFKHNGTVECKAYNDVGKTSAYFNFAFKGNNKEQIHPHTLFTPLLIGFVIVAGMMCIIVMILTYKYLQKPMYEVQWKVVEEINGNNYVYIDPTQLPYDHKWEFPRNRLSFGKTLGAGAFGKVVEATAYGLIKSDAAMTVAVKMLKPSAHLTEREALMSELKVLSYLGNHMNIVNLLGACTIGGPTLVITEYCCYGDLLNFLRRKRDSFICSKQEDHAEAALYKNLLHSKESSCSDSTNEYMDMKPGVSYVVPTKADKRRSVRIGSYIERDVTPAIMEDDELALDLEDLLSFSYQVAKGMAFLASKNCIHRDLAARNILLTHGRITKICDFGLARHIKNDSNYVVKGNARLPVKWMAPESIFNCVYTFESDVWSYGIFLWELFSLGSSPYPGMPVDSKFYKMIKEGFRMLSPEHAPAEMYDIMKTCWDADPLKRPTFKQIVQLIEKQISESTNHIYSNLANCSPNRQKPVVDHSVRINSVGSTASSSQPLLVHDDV
Chain of Mast/stem cell growth factor receptor Kit (Homo sapiens), P10721 [A829P] (P10721 whole entry A829P): as the sequence (P10721 whole entry D816H) above, with H816D, A829P counted along it
Chain of Testis-specific serine/threonine-protein kinase 1 (Homo sapiens) (Q9BXA7 whole entry): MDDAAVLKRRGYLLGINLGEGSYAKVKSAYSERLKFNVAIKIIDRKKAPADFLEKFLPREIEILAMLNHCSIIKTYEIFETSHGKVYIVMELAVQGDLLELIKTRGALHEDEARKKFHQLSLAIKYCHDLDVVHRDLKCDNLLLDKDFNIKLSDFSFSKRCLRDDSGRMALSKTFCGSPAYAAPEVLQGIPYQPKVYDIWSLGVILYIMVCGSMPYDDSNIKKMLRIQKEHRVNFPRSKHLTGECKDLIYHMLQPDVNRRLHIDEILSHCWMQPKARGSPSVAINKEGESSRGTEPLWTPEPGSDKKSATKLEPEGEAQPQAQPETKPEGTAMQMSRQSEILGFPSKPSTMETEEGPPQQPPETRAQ
Chain of Tyrosine-protein kinase Yes (Homo sapiens) (P07947 2-543 limits assumed): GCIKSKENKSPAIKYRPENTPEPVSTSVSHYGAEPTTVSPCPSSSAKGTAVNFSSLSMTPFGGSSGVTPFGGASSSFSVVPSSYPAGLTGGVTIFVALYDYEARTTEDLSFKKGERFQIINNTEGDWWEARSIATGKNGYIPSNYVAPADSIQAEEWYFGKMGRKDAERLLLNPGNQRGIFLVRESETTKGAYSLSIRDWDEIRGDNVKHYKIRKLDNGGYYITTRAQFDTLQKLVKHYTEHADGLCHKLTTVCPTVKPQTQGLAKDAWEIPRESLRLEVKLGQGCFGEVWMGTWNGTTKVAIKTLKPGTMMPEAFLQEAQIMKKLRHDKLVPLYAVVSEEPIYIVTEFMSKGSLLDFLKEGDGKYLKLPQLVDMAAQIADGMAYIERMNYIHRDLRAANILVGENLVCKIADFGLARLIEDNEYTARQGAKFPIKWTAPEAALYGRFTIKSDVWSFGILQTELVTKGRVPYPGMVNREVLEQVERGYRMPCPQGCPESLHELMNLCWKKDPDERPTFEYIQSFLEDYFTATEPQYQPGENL

CN(C)CC#Cc1ccc(OCCCc2sc(N3CCc4cccc(C(=O)Nc5nc6ccccc6s5)c4C3)nc2C(=O)O)c(F)c1 [A-1155463]
inactive: residual activity [1] 91% | inhibition [2] 1.97% | inhibition [3] 3.53% | residual activity [4] 83% | residual activity [5] 100% | residual activity [6] 100% | residual activity [7] 100% | residual activity [8] 77% | residual activity [9] 90% | residual activity [10] 100% | residual activity [11] 95% | residual activity [12] 100% | residual activity [13] 100% | residual activity [14] 100% | residual activity [15] 100% | residual activity [16] 100% | residual activity [17] 100% | residual activity [18] 100% | residual activity [19] 85% | residual activity [20] 81% | residual activity [21] 89% | residual activity [22] 71% | residual activity [23] 74% | residual activity [24] 100% | residual activity [25] 100% | residual activity [26] 100% | inhibition [27] -1.75% | residual activity [28] 100% | residual activity [29] 100% | residual activity [30] 100% | residual activity [31] 94% | inhibition [32] 10.8% | residual activity [33] 87% | residual activity [34] 70% | residual activity [35] 99% | residual activity [36] 88% | residual activity [37] 100%
